Details: Fluid (supercritical or subcritical phases), Vibrating wire viscometry

N#N [nitrogen]
Details | viscosity [mPa·s]
348.15 K, 25007 kPa | 0.02543
348.15 K, 26007 kPa | 0.02571
348.15 K, 27005 kPa | 0.02598
348.15 K, 27995 kPa | 0.02628
348.15 K, 29000 kPa | 0.02655
348.15 K, 30021 kPa | 0.02687
348.15 K, 31015 kPa | 0.02717
348.15 K, 32013 kPa | 0.02747
348.15 K, 33000 kPa | 0.02776
348.15 K, 34013 kPa | 0.02808
348.15 K, 34919 kPa | 0.02833
373.15 K, 100.3 kPa | 0.02102
373.15 K, 200.1 kPa | 0.02106
373.15 K, 301 kPa | 0.02108
373.15 K, 400.2 kPa | 0.02109
373.15 K, 600.7 kPa | 0.0211
373.15 K, 800.6 kPa | 0.02112
373.15 K, 1000.5 kPa | 0.02114
373.15 K, 1501.2 kPa | 0.0212
373.15 K, 2002.1 kPa | 0.02125
373.15 K, 2501.4 kPa | 0.02131
373.15 K, 3003.5 kPa | 0.02137
373.15 K, 3503.3 kPa | 0.02144
373.15 K, 4010 kPa | 0.0215
373.15 K, 4501.6 kPa | 0.02157
373.15 K, 5007.4 kPa | 0.02164
373.15 K, 5504.7 kPa | 0.02172
373.15 K, 6000.6 kPa | 0.0218
373.15 K, 6507.4 kPa | 0.02188
373.15 K, 7006.9 kPa | 0.02194
373.15 K, 7500.7 kPa | 0.02203
373.15 K, 8002.7 kPa | 0.02211
373.15 K, 8504.3 kPa | 0.0222
373.15 K, 9002.1 kPa | 0.02228
373.15 K, 9499.1 kPa | 0.02238
373.15 K, 10010 kPa | 0.02247
373.15 K, 11006 kPa | 0.02267
373.15 K, 12000 kPa | 0.02284
373.15 K, 13002 kPa | 0.02307
373.15 K, 14010 kPa | 0.02327
373.15 K, 15013 kPa | 0.02348
373.15 K, 16013 kPa | 0.0237
373.15 K, 17018 kPa | 0.02392
373.15 K, 18001 kPa | 0.02414
373.15 K, 19005 kPa | 0.0244
373.15 K, 19977 kPa | 0.02462
373.15 K, 21015 kPa | 0.02487
373.15 K, 22011 kPa | 0.0251
373.15 K, 23004 kPa | 0.02536
373.15 K, 24005 kPa | 0.02559
373.15 K, 25012 kPa | 0.02584
373.15 K, 26006 kPa | 0.0261
373.15 K, 27007 kPa | 0.02635
373.15 K, 28017 kPa | 0.02662
373.15 K, 29005 kPa | 0.02688
373.15 K, 30003 kPa | 0.02714
373.15 K, 31001 kPa | 0.02741
373.15 K, 32010 kPa | 0.02765
373.15 K, 33011 kPa | 0.02792
373.15 K, 34006 kPa | 0.02821
373.15 K, 34834 kPa | 0.02844
398.15 K, 100.1 kPa | 0.02203
398.15 K, 200.9 kPa | 0.02207
398.15 K, 300.8 kPa | 0.02209
398.15 K, 400.5 kPa | 0.0221
398.15 K, 600.3 kPa | 0.02212
398.15 K, 800.5 kPa | 0.02213
398.15 K, 1001 kPa | 0.02215
398.15 K, 1501.8 kPa | 0.0222
398.15 K, 2001.3 kPa | 0.02225
398.15 K, 2495.8 kPa | 0.02231
398.15 K, 3000.7 kPa | 0.02236
398.15 K, 3501.8 kPa | 0.02242
398.15 K, 4002.8 kPa | 0.02247
398.15 K, 4503.1 kPa | 0.02254
398.15 K, 5003.7 kPa | 0.0226
398.15 K, 5502.6 kPa | 0.02266
398.15 K, 6004.9 kPa | 0.02273
398.15 K, 6501.8 kPa | 0.0228
398.15 K, 7005.3 kPa | 0.02287
398.15 K, 7507.1 kPa | 0.02294
398.15 K, 8007.6 kPa | 0.02302
398.15 K, 8501 kPa | 0.02311
398.15 K, 9010.3 kPa | 0.02317
398.15 K, 9506.9 kPa | 0.02324
398.15 K, 10005 kPa | 0.02334
398.15 K, 11003 kPa | 0.0235
398.15 K, 11989 kPa | 0.02369
398.15 K, 13002 kPa | 0.02386
398.15 K, 13997 kPa | 0.02405
398.15 K, 15013 kPa | 0.02423
398.15 K, 16005 kPa | 0.02443
398.15 K, 17010 kPa | 0.02463
398.15 K, 18010 kPa | 0.02482
398.15 K, 19003 kPa | 0.02503
398.15 K, 20019 kPa | 0.02525
398.15 K, 21009 kPa | 0.02546
398.15 K, 22011 kPa | 0.02568
398.15 K, 23034 kPa | 0.0259
398.15 K, 23993 kPa | 0.0261
398.15 K, 25001 kPa | 0.02634
398.15 K, 25977 kPa | 0.02657
398.15 K, 27031 kPa | 0.02679
398.15 K, 28028 kPa | 0.02703
398.15 K, 29028 kPa | 0.02728
398.15 K, 29911 kPa | 0.02747
398.15 K, 31023 kPa | 0.02773
398.15 K, 32013 kPa | 0.02796
398.15 K, 33034 kPa | 0.02822
398.15 K, 34043 kPa | 0.02845
398.15 K, 35040 kPa | 0.02872
423.15 K, 100.1 kPa | 0.02302
423.15 K, 200.1 kPa | 0.02305
423.15 K, 300.4 kPa | 0.02307
423.15 K, 400.1 kPa | 0.02309
423.15 K, 600.2 kPa | 0.0231
423.15 K, 800.3 kPa | 0.02312
423.15 K, 1001.1 kPa | 0.02313
423.15 K, 1502.5 kPa | 0.02318
423.15 K, 1997.8 kPa | 0.02322
423.15 K, 2498 kPa | 0.02327
423.15 K, 3002.3 kPa | 0.02332
423.15 K, 3505.8 kPa | 0.02337
423.15 K, 4004 kPa | 0.02342
423.15 K, 4501.2 kPa | 0.02348
423.15 K, 5002.7 kPa | 0.02353
423.15 K, 5502.8 kPa | 0.02358
423.15 K, 6002.2 kPa | 0.02365
423.15 K, 6502.3 kPa | 0.02372
423.15 K, 7003 kPa | 0.02377
423.15 K, 7497.9 kPa | 0.02384
423.15 K, 8004.2 kPa | 0.02391
423.15 K, 8503 kPa | 0.02398
423.15 K, 9004.2 kPa | 0.02405
423.15 K, 9504.3 kPa | 0.02412
423.15 K, 10006 kPa | 0.02418
423.15 K, 11004 kPa | 0.02434
423.15 K, 11994 kPa | 0.02451
423.15 K, 13002 kPa | 0.02466
423.15 K, 14011 kPa | 0.02483
423.15 K, 15002 kPa | 0.025
423.15 K, 16009 kPa | 0.02517
423.15 K, 17009 kPa | 0.02535
423.15 K, 17999 kPa | 0.02554
423.15 K, 19008 kPa | 0.02573
423.15 K, 20008 kPa | 0.02591
423.15 K, 20987 kPa | 0.02609
423.15 K, 22009 kPa | 0.0263
423.15 K, 23014 kPa | 0.02651
423.15 K, 24019 kPa | 0.02669
423.15 K, 25024 kPa | 0.02691
423.15 K, 26017 kPa | 0.02711
423.15 K, 27035 kPa | 0.02732
423.15 K, 28010 kPa | 0.02753
423.15 K, 29015 kPa | 0.02774
423.15 K, 30011 kPa | 0.02794
423.15 K, 31001 kPa | 0.02815
423.15 K, 31988 kPa | 0.02837
423.15 K, 32989 kPa | 0.02859
423.15 K, 34020 kPa | 0.02882
423.15 K, 35050 kPa | 0.02903

— the NIST ThermoML archive (doi:10.1021/je050399c)
